Measurements as given in BindingDB's records for doi:10.7270/Q2NV9GNV (Vanderbilt Screening Center for GPCRs, Ion Channels and …, 2009).

Target: T1, Muscarinic acetylcholine receptor M4 (Rattus norvegicus, UniProt P08485)
T1 sequence (P08485 whole entry): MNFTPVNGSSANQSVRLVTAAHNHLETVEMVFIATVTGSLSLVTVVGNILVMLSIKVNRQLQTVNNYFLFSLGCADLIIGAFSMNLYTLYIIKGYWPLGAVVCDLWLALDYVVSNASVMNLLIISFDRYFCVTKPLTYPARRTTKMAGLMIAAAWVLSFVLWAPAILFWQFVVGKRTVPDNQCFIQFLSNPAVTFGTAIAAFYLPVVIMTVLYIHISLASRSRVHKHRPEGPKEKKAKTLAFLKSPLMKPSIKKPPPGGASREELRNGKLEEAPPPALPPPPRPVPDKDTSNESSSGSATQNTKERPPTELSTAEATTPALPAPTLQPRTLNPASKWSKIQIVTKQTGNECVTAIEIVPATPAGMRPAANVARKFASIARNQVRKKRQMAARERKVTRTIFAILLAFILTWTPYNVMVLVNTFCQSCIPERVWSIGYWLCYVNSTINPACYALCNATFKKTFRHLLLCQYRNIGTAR
Test: effects on NMS binding at M4, late-stage follow-up, mechanism study for M4 PAM project, biochemical, NMS competition, rat M4 (AID 1939)
Settings: inactive by the depositor's call

Compound: Cc1cc(C)c2c(N)c(C(=O)NCc3ccc4c(c3)OCO4)sc2n1 [3-amino-4,6-dimethyl-N-piperonyl-thieno[2,3-b]pyridine-2-carboxamide]
- Ki: 46.8 nM
